For 25 compounds, EC50 results are on record in US8735398B2 (Bristol-Myers Squibb Company, priority 2009, dated 2014).

Each structure is given as a SMILES string.

One experiment deals with HCV 1b genotype. As to the kind of experiment: HCV replicon assay (HCV-neo replicon cells, wild-type). It counts as cell-based, Hepatitis C virus. Conditions: HCV 1b genotype replicon; class symbol; read-out: EC50 Range against HCV 1b. Summed up:
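Inhibition was tested in replicon-bearing cells, both wild-type HCV-neo and lines with NS5A resistance substitutions, using the O'Boyle et al. 2005 replicon method or luciferase-reporter formats.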
A general note: Replicon systems follow genome replication, usually without infectious particles.
As for `C[C@H](NC(=O)[C@](C)(O)c1ccccc1)C(=O)Nc1ccc(-c2cnc(-c3ccc(NC(=O)[C@H](C)NC(=O)[C@](C)(O)c4ccccc4)cc3)o2)cc1` [OL-57], the concentration giving a half-maximal response (EC50) lay within 4.57 to 99 nM.

The same experiment, now with this note: Hepatitis C virus, HCV 1b genotype replicon; class symbol; read-out: EC50 Range against HCV 1b.
As for `CC(=O)N[C@@H](C(=O)N1CCCC1C(=O)Nc1ccc(-c2cc(-c3ccc(NC(=O)C4CCCN4C(=O)[C@H](NC(C)=O)c4ccccc4)cc3)[nH]n2)cc1)c1ccccc1` (stereo partly drawn) [OL-42, N,N′-(1H-pyrazole-3,5-diyldi-4,1-phenylene)bis(1-((2R)-2-acetamido-2-phenylacetyl)-2-pyrrolidinecarboxamide)], the EC50 is below 4.57 nM.
Regarding `C[C@H](NC(=O)[C@H](O)c1ccccc1)C(=O)Nc1ccc(-c2cc(-c3ccc(NC(=O)[C@@H](C)NC(=O)[C@H](O)c4ccccc4)cc3)[nH]n2)cc1` [OL-44, (S)-2-((R)-2-hydroxy-2-phenylacetamido)-N-(4-(5-(4-((R)-2-((R)-2-hydroxy-2-phenylacetamido)propanamido)phenyl)-1H-pyrazol-3-yl)phenyl)propanamide], the concentration giving a half-maximal response (EC50) is below 4.57 nM.
Still for that read-out and setting: as for `C[C@H](NC(=O)[C@@](C)(O)c1ccccc1)C(=O)Nc1ccc(-c2cc(-c3ccc(NC(=O)[C@H](C)NC(=O)[C@@](C)(O)c4ccccc4)cc3)[nH]n2)cc1` [OL-45, (2S,2′S)-N,N′-(1H-pyrazole-3,5-diylbis(4,1-phenyleneimino((2S)-1-oxo-1,2-propanediyl)))bis(2-hydroxy-2-phenylpropanamide)], the figure is below 4.57 nM; as for `C[C@H](NC(=O)[C@](C)(O)c1ccccc1)C(=O)Nc1ccc(-c2cc(-c3ccc(NC(=O)[C@H](C)NC(=O)[C@](C)(O)c4ccccc4)cc3)[nH]n2)cc1` [OL-46, (2R,2′R)-N,N′-(1H-pyrazole-3,5-diylbis(4,1-phenyleneimino((2S)-1-oxo-1,2-propanediyl)))bis(2-hydroxy-2-phenylpropanamide)], 4.57 to 99 nM.
On the same count and under the same terms, the same measure for `C[C@H](NC(=O)c1cc(Cl)cc2ccccc12)C(=O)Nc1ccc(-c2cc(-c3ccc(NC(=O)[C@H](C)NC(=O)c4cc(Cl)cc5ccccc45)cc3)[nH]n2)cc1` [OL-47, N,N′-(1H-pyrazole-3,5-diylbis(4,1-phenyleneimino((2S)-1-oxo-1,2-propanediyl)))bis(3-chloro-1-naphthamide)]: 4.57 to 99 nM.
Regarding `C[C@H](NC(=O)c1nc(Cl)cc2ccccc12)C(=O)Nc1ccc(-c2cc(-c3ccc(NC(=O)[C@H](C)NC(=O)c4nc(Cl)cc5ccccc45)cc3)[nH]n2)cc1` [OL-48, N,N′-(1H-pyrazole-3,5-diylbis(4,1-phenyleneimino((2S)-1-oxo-1,2-propanediyl)))bis(3-chloro-1-isoquinolinecarboxamide)], the EC50 is 100 to 999 nM.
Regarding `CC(C)(C)O[C@@H]1C[C@@H](C(=O)Nc2ccc(-c3cc(-c4ccc(NC(=O)[C@@H]5C[C@@H](OC(C)(C)C)CN5C(=O)OCc5ccccc5)cc4)[nH]n3)cc2)N(C(=O)OCc2ccccc2)C1` [OL-49, dibenzyl (2S,4R,2′S,4′R)-2,2′-(1H-pyrazole-3,5-diylbis(4,1-phenylenecarbamoyl))bis(4-tert-butoxy-1-pyrrolidinecarboxylate)], the EC50 fell in the range of 100 to 999 nM.
Regarding `O=C(Nc1ccc(-c2cnc(-c3ccc(NC(=O)[C@@H]4CCCN4C(=O)c4cccc(F)n4)cc3)o2)cc1)[C@@H]1CCCN1C(=O)c1cccc(F)n1` [OL-50, (2S,2′S)-N,N′-(1,3-oxazole-2,5-diyldi-4,1-phenylene)bis(1-((6-fluoro-2-pyridinyl)carbonyl)-2-pyrrolidinecarboxamide)], the EC50 is 100 to 999 nM.
For the compound `CN(C)[C@@H](C(=O)N1CCCC1C(=O)Nc1ccc(-c2ncc(-c3ccc(NC(=O)[C@@H]4CCCN4C(=O)[C@@H](c4ccccc4)N(C)C)cc3)o2)cc1)c1ccccc1` (stereo partly drawn) [OL-51, (2S)-N,N′-(1,3-oxazole-2,5-diyldi-4,1-phenylene)bis(1-((2R)-2-(dimethylamino)-2-phenylacetyl)-2-pyrrolidinecarboxamide)], the EC50 lay in the range of 4.57 to 99 nM.
Still for that read-out and setting: the same measure for `COc1cccc2c(C(=O)N3CCC[C@H]3C(=O)Nc3ccc(-c4cnc(-c5ccc(NC(=O)[C@@H]6CCCN6C(=O)c6nc(Cl)cc7c(OC)cccc67)cc5)o4)cc3)nc(Cl)cc12` [OL-52, (2S,2′S)-N,N′-(1,3-oxazole-2,5-diyldi-4,1-phenylene)bis(1-((3-chloro-5-methoxy-1-isoquinolinyl)carbonyl)-2-pyrrolidinecarboxamide)]: 100 to 999 nM.
Still for that read-out and setting: as for `CC(=O)N[C@@H](C(=O)N1CCCC1C(=O)Nc1ccc(-c2cnc(-c3ccc(NC(=O)C4CCCN4C(=O)[C@H](NC(C)=O)c4ccccc4)cc3)o2)cc1)c1ccccc1` (stereo partly drawn) [OL-53, N,N′-(1,3-oxazole-2,5-diyldi-4,1-phenylene)bis(1-((2R)-2-acetamido-2-phenylacetyl)-2-pyrrolidinecarboxamide)], the figure is below 4.57 nM; as for `C[C@H](NC(=O)[C@@H](O)c1ccccc1)C(=O)Nc1ccc(-c2cnc(-c3ccc(NC(=O)[C@H](C)NC(=O)[C@@H](O)c4ccccc4)cc3)o2)cc1` [OL-54, (2S,2′S)-N,N′-(1,3-oxazole-2,5-diyldi-4,1-phenylene)bis(2-(((2S)-2-hydroxy-2-phenylacetyl)amino)propanamide)], 4.57 to 99 nM.
Turning to `C[C@H](NC(=O)[C@H](O)c1ccccc1)C(=O)Nc1ccc(-c2cnc(-c3ccc(NC(=O)[C@H](C)NC(=O)[C@H](O)c4ccccc4)cc3)o2)cc1` [OL-55, (2S,2′S)-N,N′-(1,3-oxazole-2,5-diyldi-4,1-phenylene)bis(2-(((2R)-2-hydroxy-2-phenylacetyl)amino)propanamide)], the EC50 is below 4.57 nM.
Still for that read-out and setting: the same measure for `C[C@H](NC(=O)[C@@](C)(O)c1ccccc1)C(=O)Nc1ccc(-c2cnc(-c3ccc(NC(=O)[C@H](C)NC(=O)[C@@](C)(O)c4ccccc4)cc3)o2)cc1` [OL-56, ((2S,2′S)-N,N′-(1,3-oxazole-2,5-diylbis(4,1-phenyleneimino((2S)-1-oxo-1,2-propanediyl)))bis(2-hydroxy-2-phenylpropanamide))]: below 4.57 nM.
The same measure, in the same setting: the same measure for `CO[C@H]1C[C@@H](C(=O)Nc2ccc(-c3cnc(-c4ccc(NC(=O)[C@@H]5C[C@H](OC)CN5C(=O)[C@H](O)c5ccccc5)cc4)o3)cc2)N(C(=O)[C@H](O)c2ccccc2)C1` [OL-58, (2S,4S,2′S,4′S)-N,N′-(1,3-oxazole-2,5-diyldi-4,1-phenylene)bis(1-((2R)-2-hydroxy-2-phenylacetyl)-4-methoxy-2-pyrrolidinecarboxamide)]: below 4.57 nM; for `CO[C@H]1C[C@@H](C(=O)Nc2ccc(-c3cnc(-c4ccc(NC(=O)[C@@H]5C[C@H](OC)CN5C(=O)[C@@H](c5ccccc5)N(C)C)cc4)o3)cc2)N(C(=O)[C@@H](c2ccccc2)N(C)C)C1` [OL-59, (2S,4S,2′S,4′S)-N,N′-(1,3-oxazole-2,5-diyldi-4,1-phenylene)bis(1-((2R)-2-(dimethylamino)-2-phenylacetyl)-4-methoxy-2-pyrrolidinecarboxamide)]: below 4.57 nM; for `CO[C@H]1C[C@@H](C(=O)Nc2ccc(-c3cnc(-c4ccc(NC(=O)[C@@H]5C[C@H](OC)CN5C(=O)C(NC(C)=O)c5ccccc5)cc4)o3)cc2)N(C(=O)C(NC(C)=O)c2ccccc2)C1` (stereo partly drawn) [OL-60, (2S,4S,2′S,4′S)-N,N′-(1,3-oxazole-2,5-diyldi-4,1-phenylene)bis(1-(acetamido(phenyl)acetyl)-4-methoxy-2-pyrrolidinecarboxamide)]: 4.57 to 99 nM.
On the same count and under the same terms, as for `COc1cccc2c(C(=O)N3CCC[C@H]3C(=O)Nc3ccc(-c4cnc(-c5ccc(NC(=O)[C@@H]6CCCN6C(=O)[C@@H](c6ccccc6)N(C)C)cc5)o4)cc3)nc(Cl)cc12` [OL-61, (2S)-1-((3-chloro-5-methoxy-1-isoquinolinyl)carbonyl)-N-(4-(2-(4-((((2S)-1-((2R)-2-(dimethylamino)-2-phenylacetyl)-2-pyrrolidinyl)carbonyl)amino)phenyl)-1,3-oxazol-5-yl)phenyl)-2-pyrrolidinecarboxamide], the figure is 4.57 to 99 nM.
For `O=C(Nc1ccc(-c2nnc(-c3ccc(NC(=O)[C@@H]4CCC(=O)N4C(=O)OCc4ccccc4)cc3)o2)cc1)[C@@H]1CCC(=O)N1C(=O)OCc1ccccc1` [RK-2, dibenzyl (2S,2′S)-2,2′-(1,3,4-oxadiazole-2,5-diylbis(4,1-phenylenecarbamoyl))bis(5-oxo-1-pyrrolidinecarboxylate)], the EC50 lay in the range of 1000 to 10000 nM.
`O=C(Nc1ccc(-c2nnc(-c3ccc(NC(=O)C4CCCN4C(=O)Cc4ccccc4)cc3)o2)cc1)C1CCCN1C(=O)Cc1ccccc1` (stereo not shown) [RK-3, N,N′-(1,3,4-oxadiazole-2,5-diyldi-4,1-phenylene)bis(1-(phenylacetyl)-2-pyrrolidinecarboxamide)]: the EC50 fell in the range of 100 to 999 nM.
As to `O=C(Nc1ccc(-c2nnc(-c3ccc(NC(=O)[C@@H]4CCCCN4C(=O)OCc4ccccc4)cc3)o2)cc1)[C@@H]1CCCCN1C(=O)OCc1ccccc1` [RK-4, dibenzyl (2S,2′S)-2,2′-(1,3,4-oxadiazole-2,5-diylbis(4,1-phenylenecarbamoyl))di(1-piperidinecarboxylate)], the concentration giving a half-maximal response (EC50) is 100 to 999 nM.
Still for that read-out and setting: the same measure for `O=C(Nc1ccc(-c2nnc(-c3ccc(NC(=O)[C@H]4CCCCN4C(=O)OCc4ccccc4)cc3)o2)cc1)[C@H]1CCCCN1C(=O)OCc1ccccc1` [RK-5, dibenzyl (2R,2′R)-2,2′-(1,3,4-oxadiazole-2,5-diylbis(4,1-phenylenecarbamoyl))di(1-piperidinecarboxylate)]: 1000 to 10000 nM; for `COc1ccccc1C(=O)N1CCC[C@H]1C(=O)Nc1ccc(-c2nnc(-c3ccc(NC(=O)[C@@H]4CCCN4C(=O)c4ccccc4OC)cc3)o2)cc1` [RK-6, (2S,2′S)-N,N′-(1,3,4-oxadiazole-2,5-diyldi-4,1-phenylene)bis(1-(2-methoxybenzoyl)-2-pyrrolidinecarboxamide)]: 100 to 999 nM.
Same read-out and setting: the same measure for `COc1cccc(C(=O)N2CCC[C@H]2C(=O)Nc2ccc(-c3nnc(-c4ccc(NC(=O)[C@@H]5CCCN5C(=O)c5cccc(OC)c5)cc4)o3)cc2)c1` [RK-7, (2S,2′S)-N,N′-(1,3,4-oxadiazole-2,5-diyldi-4,1-phenylene)bis(1-(3-methoxybenzoyl)-2-pyrrolidinecarboxamide)]: 100 to 999 nM.

Still in this experiment, the particulars now being: Hepatitis C virus, HCV 1b genotype replicon; read-out: EC50 1b.
For the compound `C[C@H](NC(=O)c1nc(Cl)cc2ccccc12)C(=O)Nc1ccc(-c2cc(-c3ccc(NC(=O)[C@H](C)NC(=O)c4nc(Cl)cc5ccccc45)cc3)[nH]n2)cc1` [OL-48, N,N′-(1H-pyrazole-3,5-diylbis(4,1-phenyleneimino((2S)-1-oxo-1,2-propanediyl)))bis(3-chloro-1-isoquinolinecarboxamide)], the EC50 was 280 nM.
Same read-out and setting: as for `CC(C)(C)O[C@@H]1C[C@@H](C(=O)Nc2ccc(-c3cc(-c4ccc(NC(=O)[C@@H]5C[C@@H](OC(C)(C)C)CN5C(=O)OCc5ccccc5)cc4)[nH]n3)cc2)N(C(=O)OCc2ccccc2)C1` [OL-49, dibenzyl (2S,4R,2′S,4′R)-2,2′-(1H-pyrazole-3,5-diylbis(4,1-phenylenecarbamoyl))bis(4-tert-butoxy-1-pyrrolidinecarboxylate)], the figure is 230 nM.
In the case of `COc1cccc2c(C(=O)N3CCC[C@H]3C(=O)Nc3ccc(-c4cnc(-c5ccc(NC(=O)[C@@H]6CCCN6C(=O)c6nc(Cl)cc7c(OC)cccc67)cc5)o4)cc3)nc(Cl)cc12` [OL-52, (2S,2′S)-N,N′-(1,3-oxazole-2,5-diyldi-4,1-phenylene)bis(1-((3-chloro-5-methoxy-1-isoquinolinyl)carbonyl)-2-pyrrolidinecarboxamide)], the EC50 worked out at 30 nM.

As a reminder, the EC50 is the concentration that produces a half-maximal response.
